Measured values from patent publication US20250179045A1, “LPAR1 ANTAGONISTS AND USES THEREOF” (Contineum Therapeutics, Inc., priority 2021, published 2025).

The compounds below were run against human LPA1 (Homo sapiens, UniProt Q92633) (assay: In vitro functional assay of lysophosphatidic acid receptor 1 activity (calcium flux)). Conditions: B103 cells stably expressing human LPA1; Fluo-4 NW calcium flux after lysophosphatidic acid (18:1) at EC80; compounds 100 pM to 10 μM; read-out: LPA1 IC50.
Type: cell-based
Summary of the method: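 B103 cells stably expressing human LPA1 plated onto compound for 24 h at 37 °C, loaded with Fluo-4 NW dye, re-exposed to compound (30 min 37 °C plus 30 min room temp).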

human LPA1, sequence (Q92633 whole entry): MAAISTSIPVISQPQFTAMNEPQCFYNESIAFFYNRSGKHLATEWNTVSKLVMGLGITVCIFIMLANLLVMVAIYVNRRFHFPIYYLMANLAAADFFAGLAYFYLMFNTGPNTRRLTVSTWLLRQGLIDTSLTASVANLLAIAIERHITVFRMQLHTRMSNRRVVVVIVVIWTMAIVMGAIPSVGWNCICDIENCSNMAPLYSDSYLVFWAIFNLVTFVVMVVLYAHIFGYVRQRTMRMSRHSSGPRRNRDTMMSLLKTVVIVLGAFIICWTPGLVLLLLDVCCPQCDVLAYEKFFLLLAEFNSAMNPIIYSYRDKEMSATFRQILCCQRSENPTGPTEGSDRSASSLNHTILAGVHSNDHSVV

Row | Compound | IC50
1 | COc1ccc(NC(=O)C2(c3ccccc3C(C)C)CCC(NC(C)=O)CC2)c(OC(F)F)n1 (mixture of isomers) [Example 85, 4-acetamido-N-(2-(difluoromethoxy)-6-methoxypyridin-3-yl)-1-(2-isopropylphenyl)cyclohexane-1-carboxamide] | 100 to 1000 nM
2 | COc1ccc(NC(=O)[C@]2(c3ccccc3C(C)C)C[C@H](Cc3nnn[nH]3)C2)c(OC(F)F)n1 [Example 119, cis-3-((1H-tetrazol-5-yl)methyl)-N-(2-(difluoromethoxy)-6-methoxypyridin-3-yl)-1-(2-isopropylphenyl)cyclobutane-1-carboxamide] | 10 to 100 nM
3 | COc1nc(C)ccc1NC(=O)C1(c2ccccc2C(C)C)CNC(=O)C1 (stereo not shown) [Example 106, 3-(2-isopropylphenyl)-N-(2-methoxy-6-methylpyridin-3-yl)-5-oxopyrrolidine-3-carboxamide] | 100 to 1000 nM
4 | CCOCN1CC(C(=O)Nc2ncc(Cl)cc2OC(F)F)(c2ccccc2C(C)C)CC1=O (stereo not shown) [Example 11, N-(5-chloro-3-(difluoromethoxy)pyridin-2-yl)-1-(ethoxymethyl)-3-(2-isopropylphenyl)-5-oxopyrrolidine-3-carboxamide] | 100 to 1000 nM
5 | COc1ccc(NC(=O)C2(c3ccccc3C(C)C)CC(O)(C(F)(F)C(=O)O)C2)c(OC(F)F)n1 (single isomer, unassigned) [Example 54-isomer B, 2-(3-((2-(difluoromethoxy)-6-methoxypyridin-3-yl)carbamoyl)-1-hydroxy-3-(2-isopropylphenyl)cyclobutyl)-2,2-difluoroacetic acid] | 10 to 100 nM
6 | COc1ccc(NC(=O)C2(c3ccccc3C(C)C)CCC(C(N)=O)CC2)c(OC(F)F)n1 (mixture of isomers) [Example 96, N^1-(2-(difluoromethoxy)-6-methoxypyridin-3-yl)-1-(2-isopropylphenyl)cyclohexane-1,4-dicarboxamide] | 100 to 1000 nM
7 | COc1ccc(NC(=O)C2(c3ccccc3C(C)C)CC(CO)C2)c(OC)n1 (stereo not shown) [Example 60, N-(2,6-dimethoxypyridin-3-yl)-3-(hydroxymethyl)-1-(2-isopropylphenyl)cyclobutane-1-carboxamide] | 10 to 100 nM
8 | CNS(=O)(=O)C1CC(C(=O)Nc2ccc(C)nc2OC(F)F)(c2ccccc2C(C)C)C1 (stereo not shown) [Example 70, N-(2-(difluoromethoxy)-6-methylpyridin-3-yl)-1-(2-isopropylphenyl)-3-(N-methylsulfamoyl)cyclobutane-1-carboxamide] | 10 to 100 nM

Other lines, results leading:

Row | IC50 | Compound
9 | 10 to 100 nM | Cc1ccc(NC(=O)C2(c3ccccc3C(C)C)CC(CO)C2)c(OC(F)F)n1 (stereo not shown) [Example 59, N-(2-(difluoromethoxy)-6-methylpyridin-3-yl)-3-(hydroxymethyl)-1-(2-isopropylphenyl)cyclobutane-1-carboxamide]
10 | 10 to 100 nM | Cc1ccc(NC(=O)C2(c3ccccc3C(C)C)CNC(=O)C2)c(OC(F)F)n1 (stereo not shown) [Example 9, N-(2-(difluoromethoxy)-6-methylpyridin-3-yl)-3-(2-isopropylphenyl)-5-oxopyrrolidine-3-carboxamide]
11 | < 10 nM | COc1ccc(NC(=O)C2(c3ccccc3C(C)C)CC(O)(C(F)(F)C(=O)O)C2)c(OC(F)F)n1 (single isomer, unassigned) [Example 54-isomer A, 2-(3-((2-(difluoromethoxy)-6-methoxypyridin-3-yl)carbamoyl)-1-hydroxy-3-(2-isopropylphenyl)cyclobutyl)-2,2-difluoroacetic acid]
12 | < 10 nM | COc1ccc(NC(=O)C2(c3ccccc3C(C)C)CNC(=O)C2)c(OC(F)F)n1 (single isomer, unassigned) [Example 8, N-(2-(difluoromethoxy)-6-methoxypyridin-3-yl)-3-(2-isopropylphenyl)-5-oxopyrrolidine-3-carboxamide]
13 | < 10 nM | Cc1ccc(NC(=O)C2(c3ccccc3C(C)C)CC(O)(C(F)(F)C(=O)O)C2)c(OC(F)F)n1 (mixture of isomers) [Example 53, 2-(3-((2-(difluoromethoxy)-6-methylpyridin-3-yl)carbamoyl)-1-hydroxy-3-(2-isopropylphenyl)cyclobutyl)-2,2-difluoroacetic acid]
